Laboratory results reported in US20230271953A1, “Novel compounds for treatment of diseases related to DUX4 expression” (Facio Intellectual Property B.V., priority 2019, published 2023).

Test system: DUX4
Experiment: DUX4 repression assay in primary FSHD cells (protocol of Example 2 of WO2019/115711)
Type: cell-based, human
Details: incubated 72 hours, Table 2.3 (additional results), binned
Procedure: The DUX4 repression of compounds of general formula (I) was assayed following a known protocol (the protocol of Example 2 of WO2019/115711). Several compounds were incubated with primary FSHD cells for 72 hours. Results are shown in Table 2.2, showing DUX4 Count % inhibition.

Compound | DUX4 Count % inhibition
OC1CN(c2ccc3nc(-c4ccc(F)cc4)n(-c4ccncc4)c3n2)C1 [Compound 98, 1-[2-(4-fluorophenyl)-3-(pyridin-4-yl)-3H-imidazo[4,5-b]pyridin-5-yl]azetidin-3-ol] | fall outside of the bins
Fc1ccc(-c2nc3ccc(N4CC(N5CCCC5)C4)nc3n2-c2ccncc2)cc1 [Compound 106, 4-[2-(4-fluorophenyl)-5-[3-(pyrrolidin-1-yl)azetidin-1-yl]-3H-imidazo[4,5-b]pyridin-3-yl]pyridine] | fall outside of the bins
C[C@@H]1CNCCN1c1ccc2nc(-c3cccc(C#N)c3)n(-c3ccncc3)c2n1 [Compound 188-R, 3-{5-[(2R)-2-methylpiperazin-1-yl]-3-(pyridin-4-yl)-3H-imidazo[4,5-b]pyridin-2-yl}benzonitrile] | fall outside of the bins
